Results on eight molecules are retold here after PubChem BioAssay (NCI).

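96-well plates; 48 h exposure; 5 concentrations. Endpoints by linear interpolation between flanking doses. Not reached: highest tested concentration assigned. GI50 = concentration required for 50% inhibition of growth. TGI is the concentration that stops growth completely.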

Test systems include COLO 205 colon; HCT-15 colon; HL-60(TB) leukemia; HS 578T breast; LOX IMVI melanoma; MALME-3M melanoma; NCI-H460 lung; PC-3 prostate; SNB-19 CNS; U251 CNS.
Test in all cases: growth of human tumour cells (NCI), 48 h

Regarding `CCOC(=O)Nc1ccc(C)c(NC(=O)OCC)c1`, the TGI in the experiment on COLO 205 colon, with HCT-15 colon, with HL-60(TB) leukemia, in the experiment on HS 578T breast, in the experiment with LOX IMVI melanoma and in the experiment with MALME-3M melanoma was above 100 µM throughout. In addition, the TGI in the experiment with NCI-H460 lung, in the experiment on PC-3 prostate, with SNB-19 CNS and in the experiment with U251 CNS was above 100 µM throughout.
`COc1cc(-c2cc(-c3cc4c([nH]c5ccccc54)c(-c4cc(OC)c(OC)c(OC)c4)n3)cc(-c3ccccc3)n2)cc(OC)c1OC`: the GI50 with COLO 205 colon is 4.11 µM; in the experiment with HCT-15 colon, 3.37 µM; with HL-60(TB) leukemia, 3.09 µM; with HS 578T breast it was 6.09 µM; with LOX IMVI melanoma, 4.42 µM; with MALME-3M melanoma, 6.3 µM. In addition, the GI50 in the experiment on NCI-H460 lung was 3.37 µM; with PC-3 prostate, 3.59 µM; with SNB-19 CNS, 9.92 µM; in the experiment with U251 CNS, 4.25 µM. Further, the TGI with COLO 205 colon was 21.9 µM; with HCT-15 colon, above 100 µM; with HL-60(TB) leukemia, 11.3 µM; in the experiment on HS 578T breast it was above 100 µM; with LOX IMVI melanoma, 26.5 µM; in the experiment on MALME-3M melanoma it was 70.9 µM. Besides, the TGI is 18.1 µM in the experiment with NCI-H460 lung, 32.3 µM with PC-3 prostate, above 100 µM with SNB-19 CNS and 29.1 µM in the experiment on U251 CNS.
For the molecule `CS(=O)(=O)CCNCc1nc(-c2ccc3ncnc(Nc4ccc(OCc5cccc(C(F)(F)F)c5)cc4)c3c2)cs1`, the GI50 in the experiment with COLO 205 colon was above 23.9 µM; in the experiment with HCT-15 colon, above 25 µM; in the experiment on HL-60(TB) leukemia, above 25 µM; in the experiment on HS 578T breast it was 9.11 µM; with LOX IMVI melanoma, above 25 µM; with MALME-3M melanoma, 14 µM. Moreover, the GI50 was above 25 µM in the experiment on NCI-H460 lung, above 23.6 µM in the experiment with PC-3 prostate, 11.1 µM in the experiment on SNB-19 CNS and 5.9 µM with U251 CNS. Also, the TGI in the experiment with COLO 205 colon, with HCT-15 colon, in the experiment on HL-60(TB) leukemia, in the experiment with HS 578T breast, in the experiment with LOX IMVI melanoma and with MALME-3M melanoma was above 25 µM each time. Besides, the TGI was above 25 µM in the experiment with NCI-H460 lung, above 25 µM with PC-3 prostate, above 25 µM in the experiment on SNB-19 CNS and above 22.6 µM with U251 CNS.
Regarding `COc1cc(F)ccc1-c1ncnc(Nc2cccc(CS(C)(=N)=O)c2)n1` (configuration not stated), the GI50 with COLO 205 colon was 0.4 µM; in the experiment with HCT-15 colon, 0.495 µM; in the experiment with HL-60(TB) leukemia it was 0.392 µM; in the experiment on HS 578T breast it was 1.21 µM; with LOX IMVI melanoma, 0.373 µM; with MALME-3M melanoma, 2.73 µM. Besides, the GI50 was 1.79 µM with NCI-H460 lung, 1.28 µM in the experiment on PC-3 prostate, 1.08 µM with SNB-19 CNS and 0.779 µM in the experiment on U251 CNS. The TGI in the experiment on COLO 205 colon was 2.18 µM; in the experiment with HCT-15 colon, above 100 µM; in the experiment on HL-60(TB) leukemia it was 3.14 µM; in the experiment on HS 578T breast it was 23.9 µM; in the experiment on LOX IMVI melanoma it was above 100 µM; with MALME-3M melanoma, 9.66 µM. For the same molecule, the TGI with NCI-H460 lung is above 100 µM; in the experiment on PC-3 prostate it was 7.7 µM; with SNB-19 CNS it was above 100 µM; with U251 CNS, above 100 µM.
For `CCSc1ncnc2c1ncn2C1OC(CO)C(O)C1O` (configuration not stated), the GI50 in the experiment with COLO 205 colon was 0.777 µM; in the experiment on HCT-15 colon, 0.274 µM; in the experiment with HL-60(TB) leukemia it was 0.354 µM; in the experiment on HS 578T breast, 0.975 µM; with LOX IMVI melanoma it was 0.0945 µM; in the experiment with MALME-3M melanoma, 9.41 µM. Moreover, the GI50 was 0.6 µM in the experiment with NCI-H460 lung, 0.692 µM in the experiment with PC-3 prostate, 8.24 µM in the experiment on SNB-19 CNS and 6.39 µM in the experiment on U251 CNS. Also, the TGI is above 100 µM in the experiment with COLO 205 colon; above 100 µM with HCT-15 colon; 31.1 µM in the experiment on HL-60(TB) leukemia; 34 µM in the experiment on HS 578T breast; 16.8 µM in the experiment with LOX IMVI melanoma; above 100 µM with MALME-3M melanoma. Moreover, the TGI is above 100 µM in the experiment with NCI-H460 lung, above 71.3 µM in the experiment with PC-3 prostate, above 100 µM in the experiment with SNB-19 CNS and above 100 µM in the experiment on U251 CNS.
As for `Cn1cc(C2=C(c3cn(CCCCO)c4ccccc34)C(=O)NC2=O)c2ccccc21`, the GI50 with COLO 205 colon is 7.28 µM; with HCT-15 colon, 7.72 µM; with HL-60(TB) leukemia, 6.71 µM; in the experiment on HS 578T breast, 4.87 µM; in the experiment on LOX IMVI melanoma, 5.62 µM; in the experiment on MALME-3M melanoma it was above 21.6 µM. In addition, the GI50 in the experiment on NCI-H460 lung is 8.41 µM; with PC-3 prostate, 9.38 µM; in the experiment with SNB-19 CNS, 14.7 µM; in the experiment on U251 CNS it was 8.55 µM. In addition, the TGI with COLO 205 colon was above 19.5 µM; in the experiment on HCT-15 colon, above 25 µM; in the experiment on HL-60(TB) leukemia, 16.3 µM; in the experiment on HS 578T breast it was above 25 µM; in the experiment with LOX IMVI melanoma it was above 25 µM; with MALME-3M melanoma, above 25 µM. The TGI in the experiment on NCI-H460 lung, with PC-3 prostate, in the experiment on SNB-19 CNS and in the experiment with U251 CNS was above 25 µM in each case.
With `CC(=O)OC12C=CC(=O)N1c1ccccc1C(=O)O2` (configuration not stated), the TGI in the experiment on COLO 205 colon was above 100 µM; in the experiment with HCT-15 colon, above 100 µM; in the experiment on HL-60(TB) leukemia it was above 100 µM; in the experiment with HS 578T breast it was above 100 µM; with LOX IMVI melanoma it was above 100 µM; in the experiment with MALME-3M melanoma it was above 85.8 µM. The TGI in the experiment with NCI-H460 lung, in the experiment on PC-3 prostate, in the experiment on SNB-19 CNS and in the experiment with U251 CNS was above 100 µM throughout. The GI50 with HS 578T breast and with PC-3 prostate was above 100 µM in each case.
Turning to `O=C(N[C@@H](c1ccc(Cl)c(Cl)c1)C1CNC1)c1ccc2cnccc2c1`, the GI50 is 0.194 µM with COLO 205 colon; 1.6 µM with HCT-15 colon; 0.534 µM with HL-60(TB) leukemia; 0.0256 µM in the experiment with HS 578T breast; 0.716 µM in the experiment with LOX IMVI melanoma; 0.138 µM in the experiment on MALME-3M melanoma. The GI50 in the experiment with NCI-H460 lung is 0.214 µM; with PC-3 prostate it was 0.486 µM; with SNB-19 CNS, 0.649 µM; in the experiment with U251 CNS, 0.475 µM. For the same molecule, the TGI was 1.29 µM with COLO 205 colon; 12 µM with HCT-15 colon; 3.89 µM in the experiment with HL-60(TB) leukemia; 0.483 µM in the experiment with HS 578T breast; 3.71 µM with LOX IMVI melanoma; 0.7 µM in the experiment with MALME-3M melanoma. Further, the TGI in the experiment with NCI-H460 lung came out at 11 µM; in the experiment on PC-3 prostate it was 17.2 µM; with SNB-19 CNS, 10.7 µM; with U251 CNS it was 4.26 µM.
